Measured values from patent publication US20240209028A1, “CNP COMPOUNDS” (priority 2022, published 2024).
Starred links: 1 amine or outer side, 2 acyl side, 3 side chain; linkers in the order of their positions; H or OH if unused. Positions of bridges follow the written chain, without caps; N, C: chain ends. Residues, ends and D or L forms follow the SMILES beside them. *: point of attachment. C18 diacid = O=C(O)CCCCCCCCCCCCCCCCC(=O)*; γGlu = O=C(O)[C@H](CCC(=O)[*:2])N[*:1]; AEEA = NCCOCCOCC(=O)O

Columns and labels:
[1] = Thioflavin T (ThT) assay: lagtime and peptide recovery; format: physicochemical; details: assay terminated after 45 hours; for LagTime (h) at pH 4.0: ThT, 37° C., shaking; for LagTime (h) at pH 6.5: ThT assay, pH 6.5, 37° C.
In short: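 ThT (final about 1 μM) was added to peptide supernatants at pH 4.0 and 6.5 and incubated at 37 °C with orbital shaking for 45 h. Fluorescence (ex 444/em 485 nm) was read every 20 min, and lag-time was taken as the time to onset of signal rise. Recovery is the RP-UPLC (215 nm) total peak area after vs. before incubation.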

[2] = High-Molecular-Weight-Protein (HMWP) formation by SEC-UPLC; format: physicochemical; details: increase over two weeks at 37° C.
In short: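 Formulations at pH 4.0 or 6.5 incubated quiescently for two weeks at 37 °C; HMWP (peaks eluting before monomer, % of total peptide area) measured by SEC-UPLC, pH 2.4 mobile phase with 50% isopropanol, 50 °C, UV 215 nm. Value is HMWP increase, normalized to two weeks if needed.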

Structure (SMILES)	LagTime (h) at pH 4.0 [1] [h]	2-Week HMWP formation at pH 4.0 (%), % relative to total peak area [2] [%]	LagTime (h) at pH 6.5 [1] [h]	2-Week HMWP formation at pH 6.5 (%), % relative to total peak area [2] [%]
CC[C@H](C)[C@@H]1NC(=O)[C@H](CCCNC(=N)N)NC(=O)[C@H](CC(=O)O)NC(=O)[C@H](CC(C)C)NC(=O)[C@@H]2CCCN2C(=O)[C@H](CC(C)C)NC(=O)CNC(=O)[C@H](Cc2ccccc2)NC(=O)[C@@H](NC(=O)CNC(=O)[C@H](CO)NC(=O)[C@H](CO)NC(=O)[C@H](CC(C)C)NC(=O)CNC(=O)[C@H](CCCCN)NC(=O)[C@H](CCCCN)NC(=O)[C@H](CCC(N)=O)NC(=O)[C@H](C)NC(=O)CNC(=O)[C@H](CCCCN)NC(=O)[C@H](Cc2ccc(O)cc2)NC(=O)[C@H](CCCCN)NC(=O)[C@H](CCCNC(=N)N)NC(=O)[C@H](C)NC(=O)[C@H](CCC(N)=O)NC(=O)[C@@H]2CCCN2C(=O)[C@H](Cc2c[nH]cn2)NC(=O)[C@H](CCC(=O)O)NC(=O)[C@H](CCC(N)=O)NC(=O)CC[C@H](NC(=O)CC[C@H](NC(=O)CC[C@H](NC(=O)CC[C@H](NC(=O)CCCCCCCCCCCCCCCCC(=O)O)C(=O)O)C(=O)O)C(=O)O)C(=O)O)CSSC[C@@H](C(=O)O)NC(=O)CNC(=O)[C@H](CC(C)C)NC(=O)CNC(=O)[C@H](CO)NC(=O)[C@H](CC(C)C)NC(=O)[C@H](CO)NC(=O)CNC1=O [compound 1389] ({C18 diacid-γGlu-γGlu-γGlu-γGlu}-QEHPQARKYKGAQKKGLSSGCFGLPLDRIGSLSGLGC-OH; disulfide 21-37)	45	1.43		
CC[C@H](C)[C@@H]1NC(=O)[C@H](CCCNC(=N)N)NC(=O)[C@H](CCC(=O)O)NC(=O)[C@H](CC(C)C)NC(=O)[C@@H]2CCCN2C(=O)[C@H](CC(C)C)NC(=O)CNC(=O)[C@H](Cc2ccccc2)NC(=O)[C@@H](NC(=O)CNC(=O)[C@H](CCC(N)=O)NC(=O)[C@H](CO)NC(=O)CNC(=O)CNC(=O)[C@H](CCCCN)NC(=O)[C@H](CCCCN)NC(=O)[C@H](CCC(N)=O)NC(=O)[C@H](C)NC(=O)CNC(=O)[C@H](CCCCN)NC(=O)[C@H](Cc2ccc(O)cc2)NC(=O)COCCOCCNC(=O)COCCOCCNC(=O)COCCOCCNC(=O)COCCOCCNC(=O)CC[C@H](NC(=O)CC[C@H](NC(=O)CCCCCCCCCCCCCCCCC(=O)O)C(=O)O)C(=O)O)CSSC[C@@H](C(=O)O)NC(=O)CNC(=O)[C@H](CC(C)C)NC(=O)CNC(=O)[C@H](CO)NC(=O)[C@H](CC(C)C)NC(=O)[C@H](CO)NC(=O)CNC1=O [compound 1489] ({C18 diacid-γGlu-γGlu-AEEA-AEEA-AEEA-AEEA}-YKGAQKKGGSQGCFGLPLERIGSLSGLGC-OH; disulfide 13-29)	45	2.12		
CC[C@H](C)[C@@H]1NC(=O)[C@H](CCCNC(=N)N)NC(=O)[C@H](CC(=O)O)NC(=O)[C@H](CC(C)C)NC(=O)[C@@H]2CCCN2C(=O)[C@H](CC(C)C)NC(=O)CNC(=O)[C@H](Cc2ccccc2)NC(=O)[C@@H](NC(=O)CNC(=O)[C@H](CCC(N)=O)NC(=O)[C@H](CO)NC(=O)[C@H](CC(C)C)NC(=O)CNC(=O)[C@H](CCCCN)NC(=O)[C@H](CCCCN)NC(=O)[C@H](CCC(N)=O)NC(=O)[C@H](C)NC(=O)CNC(=O)[C@H](CCCCN)NC(=O)[C@H](Cc2ccc(O)cc2)NC(=O)[C@H](CCCCN)NC(=O)[C@H](CCCNC(=N)N)NC(=O)[C@H](C)NC(=O)COCCOCCNC(=O)COCCOCCNC(=O)COCCOCCNC(=O)COCCOCCNC(=O)CC[C@H](NC(=O)CC[C@H](NC(=O)CC[C@H](NC(=O)CC[C@H](NC(=O)CC[C@H](NC(=O)CCCCCCCCCCCCCCCCC(=O)O)C(=O)O)C(=O)O)C(=O)O)C(=O)O)C(=O)O)CSSC[C@@H](C(=O)O)NC(=O)CNC(=O)[C@H](CC(C)C)NC(=O)CNC(=O)[C@H](CO)NC(=O)[C@H](CC(C)C)NC(=O)[C@H](CO)NC(=O)CNC1=O [compound 9407] ({C18 diacid-γGlu-γGlu-γGlu-γGlu-γGlu-AEEA-AEEA-AEEA-AEEA}-ARKYKGAQKKGLSQGCFGLPLDRIGSLSGLGC-OH; disulfide 16-32)			45	12
CC[C@H](C)[C@@H]1NC(=O)[C@H](CCCNC(=N)N)NC(=O)[C@H](CC(=O)O)NC(=O)[C@H](CC(C)C)NC(=O)[C@@H]2CCCN2C(=O)[C@H](CC(C)C)NC(=O)CNC(=O)[C@H](Cc2ccccc2)NC(=O)[C@@H](NC(=O)CNC(=O)[C@H](CCC(N)=O)NC(=O)[C@H](CO)NC(=O)[C@H](CC(C)C)NC(=O)CNC(=O)[C@H](CCCCN)NC(=O)[C@H](CCCCN)NC(=O)[C@H](CCC(N)=O)NC(=O)[C@H](C)NC(=O)CNC(=O)[C@H](CCCCN)NC(=O)[C@H](Cc2ccc(O)cc2)NC(=O)COCCOCCNC(=O)COCCOCCNC(=O)COCCOCCNC(=O)COCCOCCNC(=O)CC[C@H](NC(=O)CC[C@H](NC(=O)CC[C@H](NC(=O)CCCCCCCCCCCCCCCCC(=O)O)C(=O)O)C(=O)O)C(=O)O)CSSC[C@@H](C(=O)O)NC(=O)CNC(=O)[C@H](CC(C)C)NC(=O)CNC(=O)[C@H](CO)NC(=O)[C@H](CC(C)C)NC(=O)[C@H](CO)NC(=O)CNC1=O [compound 9480] ({C18 diacid-γGlu-γGlu-γGlu-AEEA-AEEA-AEEA-AEEA}-YKGAQKKGLSQGCFGLPLDRIGSLSGLGC-OH; disulfide 13-29)			45	2.65
CC[C@H](C)[C@@H]1NC(=O)[C@H](CCCNC(=N)N)NC(=O)[C@H](CC(=O)O)NC(=O)[C@H](CC(C)C)NC(=O)[C@@H]2CCCN2C(=O)[C@H](CC(C)C)NC(=O)CNC(=O)[C@H](Cc2ccccc2)NC(=O)[C@@H](NC(=O)CNC(=O)[C@H](CO)NC(=O)[C@H](CO)NC(=O)[C@H](CC(C)C)NC(=O)CNC(=O)[C@H](CCCCN)NC(=O)[C@H](CCCCN)NC(=O)[C@H](CCC(N)=O)NC(=O)[C@H](C)NC(=O)CNC(=O)[C@H](CCCCN)NC(=O)[C@H](Cc2ccc(O)cc2)NC(=O)[C@H](CCCCN)NC(=O)[C@H](CCCNC(=N)N)NC(=O)[C@H](C)NC(=O)[C@H](CCC(N)=O)NC(=O)[C@@H]2CCCN2C(=O)[C@H](Cc2c[nH]cn2)NC(=O)[C@H](CCC(=O)O)NC(=O)[C@H](CCC(N)=O)NC(=O)CC[C@H](NC(=O)CC[C@H](NC(=O)CC[C@H](NC(=O)CC[C@H](NC(=O)CC[C@H](NC(=O)CCCCCCCCCCCCCCCCC(=O)O)C(=O)O)C(=O)O)C(=O)O)C(=O)O)C(=O)O)CSSC[C@@H](C(=O)O)NC(=O)CNC(=O)[C@H](CC(C)C)NC(=O)CNC(=O)[C@H](CO)NC(=O)[C@H](CC(C)C)NC(=O)[C@H](CO)NC(=O)CNC1=O [compound 9482] ({C18 diacid-γGlu-γGlu-γGlu-γGlu-γGlu}-QEHPQARKYKGAQKKGLSSGCFGLPLDRIGSLSGLGC-OH; disulfide 21-37)			45	1.96
CC[C@H](C)[C@@H]1NC(=O)[C@H](CCCNC(=N)N)NC(=O)[C@H](CC(=O)O)NC(=O)[C@H](CC(C)C)NC(=O)[C@@H]2CCCN2C(=O)[C@H](CC(C)C)NC(=O)CNC(=O)[C@H](Cc2ccccc2)NC(=O)[C@@H](NC(=O)CNC(=O)[C@H](CCC(N)=O)NC(=O)[C@H](CO)NC(=O)[C@H](CC(C)C)NC(=O)CNC(=O)[C@H](CCCCN)NC(=O)[C@H](CCCCN)NC(=O)[C@H](CCC(N)=O)NC(=O)[C@H](C)NC(=O)CNC(=O)[C@H](CCCCN)NC(=O)[C@H](Cc2ccc(O)cc2)NC(=O)[C@H](CCCCN)NC(=O)[C@H](CCCNC(=N)N)NC(=O)[C@H](C)NC(=O)[C@H](CCC(N)=O)NC(=O)[C@@H]2CCCN2C(=O)[C@H](Cc2c[nH]cn2)NC(=O)[C@H](CCC(=O)O)NC(=O)[C@H](CCC(N)=O)NC(=O)COCCOCCNC(=O)COCCOCCNC(=O)COCCOCCNC(=O)COCCOCCNC(=O)CC[C@H](NC(=O)CC[C@H](NC(=O)CC[C@H](NC(=O)CC[C@H](NC(=O)CC[C@H](NC(=O)CCCCCCCCCCCCCCCCC(=O)O)C(=O)O)C(=O)O)C(=O)O)C(=O)O)C(=O)O)CSSC[C@@H](C(=O)O)NC(=O)CNC(=O)[C@H](CC(C)C)NC(=O)CNC(=O)[C@H](CO)NC(=O)[C@H](CC(C)C)NC(=O)[C@H](CO)NC(=O)CNC1=O [compound 1406] ({C18 diacid-γGlu-γGlu-γGlu-γGlu-γGlu-AEEA-AEEA-AEEA-AEEA}-QEHPQARKYKGAQKKGLSQGCFGLPLDRIGSLSGLGC-OH; disulfide 21-37)			45	2.77
CC[C@H](C)[C@@H]1NC(=O)[C@H](CCCNC(=N)N)NC(=O)[C@H](CC(=O)O)NC(=O)[C@H](CC(C)C)NC(=O)[C@@H]2CCCN2C(=O)[C@H](CC(C)C)NC(=O)CNC(=O)[C@H](Cc2ccccc2)NC(=O)[C@@H](NC(=O)CNC(=O)[C@H](CO)NC(=O)[C@H](CO)NC(=O)[C@H](CC(C)C)NC(=O)CNC(=O)[C@@H](NC(=O)[C@H](Cc2c[nH]cn2)NC(=O)[C@H](CCC(N)=O)NC(=O)[C@H](C)NC(=O)CNC(=O)[C@H](Cc2c[nH]cn2)NC(=O)[C@H](Cc2ccc(O)cc2)NC(=O)COCCOCCNC(=O)COCCOCCNC(=O)CC[C@H](NC(=O)CCCCCCCCCCCCCCCCC(=O)O)C(=O)O)[C@@H](C)O)CSSC[C@@H](C(=O)O)NC(=O)CNC(=O)[C@H](CC(C)C)NC(=O)CNC(=O)[C@H](CO)NC(=O)[C@H](CC(C)C)NC(=O)[C@H](CO)NC(=O)CNC1=O [compound 1304] ({C18 diacid-γGlu-AEEA-AEEA}-YHGAQHTGLSSGCFGLPLDRIGSLSGLGC-OH; disulfide 13-29)			45	1.55
